Data taken from US11591341B2 (ALIGOS THERAPEUTICS, INC., priority 2019, dated 2023).

System: HBV
Test: HBV-DNA Antiviral Assay Using HepG2.117 Cells (intracellular HBV DNA by qPCR)
Format: cell-based, hepatitis B virus (genotype D)
Settings: Hepatitis B virus, HepG2.117
In short: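 HepG2.117 cells (genotype D HBV, Tet-off) were induced by doxycycline withdrawal and treated for 3 days with 9 concentrations in 4-fold dilution, 2% DMSO final. Intracellular HBV DNA was measured by qPCR against a standard curve, with ATPlite viability read in parallel. EC50, EC90 and CC50 came from fits against the DMSO control.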

| Structure (SMILES) | EC50 |
| --- | --- |
| O=C(NCc1ccccc1)c1c2n(c(=O)n1-c1ccc(N3CCO[C@H](C(F)(F)F)C3)cc1)CCN(C(=O)c1ccc(Br)c(Cl)c1)C2 [Example 415, N-benzyl-7-(4-bromo-3-chloro-benzoyl)-2-[4-(2,2-difluoro-1λ^2-fluora-8-oxa-5-azaspiro[2.5]octan-5-yl)phenyl]-3-oxo-6,8-dihydro-5H-imidazo[1,5-a]pyrazine-1-carboxamide] | 100 to 500 nM |
| COc1ccc(CNC(=O)c2c3n(c(=O)n2-c2ccc(OCC(F)(F)F)cc2)CCN(C(=O)c2ccc(Br)c(Cl)c2)C3)c(OC)c1 [Example 229, 7-(4-bromo-3-chloro-benozyl)-N-[(2,4-dimethoxyphenyl)methyl]-3-oxo-2-[4-(2,2,2-trifluoroethoxy)phenyl]-6,8-dihydro-5H-imidazo[1,5-a]pyrazine-1-carboxamide] | < 100 nM |
| NC(=O)c1cccc(-n2c(C(=O)NCc3ccccc3)c3n(c2=O)CCN(C(=O)c2ccc(Br)c(Cl)c2)C3)c1 [Example 35, N-benzyl-7-(4-bromo-3-chloro-benzoyl)-2-(3-carbamoylphenyl)-3-oxo-6,8-dihydro-5H-imidazo[1,5-a]pyrazine-1-carboxamide] | > 5000 nM |
| CC(C)Oc1ccc(-n2c(-c3ncc(-c4ccccc4)o3)c3n(c2=O)CCN(C(=O)c2ccc(Br)c(Cl)c2)C3)cc1 [Example 197, 7-(4-bromo-3-chloro-benzoyl)-2-(4-isopropoxyphenyl)-1-(5-phenyloxazol-2-yl)-6,8-dihydro-5H-imidazo[1,5-a]pyrazin-3-one] | > 5000 nM |
| O=C(NCc1ccccc1)c1c2n(c(=O)n1-c1ccccc1)CCN(C(=O)c1ccc(Br)c(Cl)c1)C2 [Example 195, N-benzyl-7-(4-bromo-3-chloro-benzoyl)-3-oxo-2-phenyl-6,8-dihydro-5H-imidazo[1,5-a]pyrazine-1-carboxamide] | 500 to 5000 nM |
| C[C@H](NC(=O)c1c2n(c(=O)n1-c1ccc(OC3CC3)cc1)CCN(C(=O)c1ccc(Br)c(Cl)c1)C2)c1ccc(OC(C)(C)C(N)=O)cc1F (stereo in doubt) [Example 338, 7-(4-bromo-3-chloro-benzoyl)-2-[4-(cyclopropoxy)phenyl]-3-oxo-N-[rac-(1S)-1-[4-(2-amino-1,1-dimethyl-2-oxo-ethoxy)-2-fluoro-phenyl]ethyl]-6,8-dihydro-5H-imidazo[1,5-a]pyrazine-1-carboxamide] | 100 to 500 nM |
| O=C(NCc1ccccc1)c1c2n(c(=O)n1-c1ccc(F)cc1)CCN(C(=O)c1ccc(Br)c(Cl)c1)C2 [Example 22, N-benzyl-7-(4-bromo-3-chloro-benzoyl)-2-(4-fluorophenyl)-3-oxo-6,8-dihydro-5H-imidazo[1,5-a]pyrazine-1-carboxamide] | 500 to 5000 nM |
| COc1ccc(-n2c(-c3ncc(Cc4ccccc4)o3)c3n(c2=O)CCN(C(=O)c2ccc(Br)c(Cl)c2)C3)cc1 [Example 86] | 500 to 5000 nM |
| O=C(c1ccc(Br)c(Cl)c1)N1CCn2c(c3n(c2=O)CCCN(CC2CC2)C3=O)C1 [Example 133, 4-(4-bromo-3-chloro-benzoyl)-13-(cyclopropylmethyl)-4,7,9,13-tetrazatricyclo[7.5.0.0^2,7]tetradec-1-ene-8.14-dione] | > 5000 nM |
| C[C@@H]1CN(c2ccc(-n3c(C(=O)NCc4ccccc4)c4n(c3=O)CCN(C(=O)c3ccc(Br)c(Cl)c3)C4)cc2)CCO1 (racemic) [Example 416, N-benzyl-7-(4-bromo-3-chloro-benzoyl)-3-oxo-2-[4-[rac-(2R)-2-methylmorpholin-4-yl]phenyl]-6,8-dihydro-5H-imidazo[1,5-a]pyrazine-1-carboxamide] | 100 to 500 nM |
| Cc1cc(-n2c(C(=O)NCc3ccccc3)c3n(c2=O)CCN(C(=O)c2ccc(Br)c(Cl)c2)C3)ccc1C#N [Example 257, N-benzyl-7-(4-bromo-3-chloro-benzoyl)-2-(4-cyano-3-methyl-phenyl)-3-oxo-6,8-dihydro-5H-imidazo[1,5-a]pyrazine-1-carboxamide] | 500 to 5000 nM |
| CC(C)(NC(=O)c1c2n(c(=O)n1-c1ccccc1)CCN(C(=O)c1ccc(Br)c(Cl)c1)C2)c1ccccc1 [Example 30, 7-(4-bromo-3-chloro-benzoyl)-N-(1-methyl-1-phenyl-ethyl)-3-oxo-2-phenyl-6,8-dihydro-5H-imidazo[1,5-a]pyrazine-1-carboxamide] | > 5000 nM |
| Cc1ccc(-n2c(C(=O)NCc3ccccc3)c3n(c2=O)CCN(C(=O)c2ccc(Cl)c(Cl)c2)C3)cc1 [Example 122, N-benzyl-7-(3,4-dichlorobenzoyl)-3-oxo-2-(p-tolyl)-6,8-dihydro-5H-imidazo[1,5-a]pyrazine-1-carboxamide] | 500 to 5000 nM |
| N#CCOc1ccc(CNC(=O)c2c3n(c(=O)n2-c2ccc(OCC(F)(F)F)cc2)CCN(C(=O)c2ccc(Br)c(Cl)c2)C3)c(F)c1 [Example 326, 7-(4-bromo-3-chloro-benzoyl)-N-[[4-(cyanomethoxy)-2-fluoro-phenyl]methyl]-3-oxo-2-[4-(2,2,2-trifluoroethoxy)phenyl]-6,8-dihydro-5H-imidazo[1,5-a]pyrazine-1-carboxamide] | 100 to 500 nM |
| COc1ccc(-n2c(C(=O)NCc3ccccc3)c3n(c2=O)CCN(C(=O)c2ccc(Cl)c(Cl)c2)C3)c(Cl)c1 [Example 59, N-benzyl-2-(2-chloro-4-methoxy-phenyl)-7-(3,4-dichlorobenzoyl)-3-oxo-6,8-dihydro-5H-imidazo[1,5-a]pyrazine-1-carboxamide] | 500 to 5000 nM |
| C[C@@H]1Cn2c(c(C(=O)N[C@H](C)c3ccccc3F)n(-c3ccc(OC4CC4)cc3)c2=O)CN1C(=O)c1ccc(Br)c(Cl)c1 (mixture of isomers) [Example 335, (6RS)-7-(4-bromo-3-chloro-benzoyl)-2-[4-(cyclopropoxy)phenyl]-N-[(1S)-1-(2-fluorophenyl)ethyl]-6-methyl-3-oxo-6,8-dihydro-5H-imidazo[1,5-a]pyrazine-1-carboxamide] | 500 to 5000 nM |
| COc1ccc([C@H](C)NC(=O)c2c3n(c(=O)n2-c2ccc(OC)cc2)CCN(C(=O)c2ccc(Br)c(Cl)c2)C3)cc1 (stereo in doubt) [Example 73, 7-(4-bromo-3-chloro-benzoyl)-2-(4-methoxyphenyl)-3-oxo-N-[rac-(1S)-1-(4-methoxyphenyl)ethyl]-6,8-dihydro-5H-imidazo[1,5-a]pyrazine-1-carboxamide] | < 100 nM |
| C[C@H](NC(=O)c1c2n(c(=O)n1-c1ccc(OC3CCC3)cc1)CCN(C(=O)c1ccc(Br)c(Cl)c1)C2)c1ccccc1 (stereo in doubt) [Example 136, 7-(4-bromo-3-chloro-benzoyl)-2-[4-(cyclobutoxy)phenyl]-3-oxo-N-[rac-(1S)-1-phenylethyl]-6,8-dihydro-5H-imidazo[1,5-a]pyrazine-1-carboxamide] | 100 to 500 nM |
| COc1ccc(-n2c(C(=O)NCc3ccc(F)cc3C)c3n(c2=O)CCN(C(=O)c2ccc(Br)c(Cl)c2)C3)cc1 [Example 116, 7-(4-bromo-3-chloro-benzoyl)-N-[(4-fluoro-2-methyl-phenyl)methyl]-2-(4-methoxyphenyl)-3-oxo-6,8-dihydro-5H-imidazo[1,5-a]pyrazine-1-carboxamide] | 100 to 500 nM |
| O=C(NCc1ccccc1)c1c2n(c(=O)n1-c1ccc3cn[nH]c3c1)CCN(C(=O)c1ccc(Br)c(Cl)c1)C2 [Example 408, N-benzyl-7-(4-bromo-3-chloro-benzoyl)-2-(1H-indazol-6-yl)-3-oxo-6,8-dihydro-5H-imidazo[1,5-a]pyrazine-1-carboxamide] | 100 to 500 nM |
| O=C(NCc1ccccc1)c1c2n(c(=O)n1-c1ccc(N3CCCC3=O)cc1)CCN(C(=O)c1ccc(Br)c(Cl)c1)C2 [Example 412, N-benzyl-7-(4-bromo-3-chloro-benzoyl)-3-oxo-2-[4-(2-oxopyrrolidin-1-yl)phenyl]-6,8-dihydro-5H-imidazo[1,5-a]pyrazine-1-carboxamide] | 100 to 500 nM |
| C[C@@H](NC(=O)c1c2n(c(=O)n1-c1ccc(OC3CC3)cc1)CCN(C(=O)c1ccc(Br)c(Cl)c1)C2)c1ccc(OCC#N)cc1F (stereo in doubt) [Example 342, 7-(4-bromo-3-chloro-benzoyl)-2-[4-(cyclopropxy)phenyl]-3-oxo-N-[rac-(1R)-1-[4-(cyanomethoxy)-2-fluoro-phenyl]ethyl]-6,8-dihdyro-5H-imidazo[1,5-a]pyrazine-1-carboxamide] | 100 to 500 nM |
| O=C(NCc1cccc2cccnc12)c1c2n(c(=O)n1-c1ccc(OCC(F)(F)F)cc1)CCN(C(=O)c1ccc(Br)c(Cl)c1)C2 [Example 230, 7-(4-bromo-3-chloro-benzoyl)-3-oxo-N-(8-quinolylmethyl)-2-[4-(2,2,2-triflurooethoxy)phenyl]-6,8-dihydro-5H-imidazo[1,5-a]pyrazine-1-carboxamide] | 100 to 500 nM |
| COc1ccc(-n2c(C(=O)NCc3ccc(F)cc3)c3n(c2=O)CCN(C(=O)c2ccc(Cl)c(Cl)c2)C3)cc1 [Example 61, 7-(3,4-dichlorobenzoyl)-N-[(4-fluorophenyl)methyl]-2-(4-methoxyphenyl)-3-oxo-6,8-dihydro-5H-imidazo[1,5-a]pyrazine-1-carboxamide] | 500 to 5000 nM |
| C[C@H](c1ccccc1)N1C[C@@H](O)Cn2c(c3n(c2=O)CCN(C(=O)c2ccc(Br)c(Cl)c2)C3)C1=O (stereo in doubt) [Example 202, (11RS)-4-(4-bromo-3-chloro-benzoyl)-11-hydroxy-13-[(1R)-1-phenylethyl]-4,7,9,13-tetrazatricyclo[7.5.0.0^2,7]tetradec-1-ene-8.14-dione] | 100 to 500 nM |
| CC1Cn2c(c(C(=O)NCc3ccccc3-c3ncccn3)n(-c3ccc(OC4CC4)cc3)c2=O)CN1C(=O)c1ccc(Br)c(C#N)c1 (racemic) [Example 451, rac-(6R)-7-(4-bromo-3-cyano-benzoyl)-2-[4-(cyclopropoxy)phenyl]-6-methyl-3-oxo-N-[(2-pyrimidin-2-ylphenyl)methyl]-6,8-dihydro-5H-imidazo[1,5-a]pyrazine-1-carboxamide] | 100 to 500 nM |
